Measured values: article PMC6203605 (Journal of biological inorganic chemistry : JBIC : a …, 2018)

How the values were obtained:
HemO [1] = target: HemO (Pseudomonas aeruginosa, UniProt G3XCZ8, D99A); experiment: biochemical
HemO [2] = target: HemO (Pseudomonas aeruginosa, UniProt G3XCZ8); experiment: intrinsic fluorescence quenching; format: binding
HemO [3] = target: HemO (Pseudomonas aeruginosa, UniProt G3XCZ8, R188A); experiment: biochemical
HemO [4] = target: HemO (Pseudomonas aeruginosa, UniProt G3XCZ8, D99A/R188A); experiment: biochemical

C=CC1=C(C)C2=Cc3c(C=C)c(C)c4[n]3[Fe]([Cl])[n]3c(c(C)c(CCC(=O)O)c3=CC3=NC(=C4)C(C)=C3CCC(=O)O)=CC1=N2 [heme]
Kd (HemO [1]): 830 ± 210 nM | Kd (HemO [2]): 870 ± 170 nM | Kd (HemO [3]): 790 ± 220 nM | Kd (HemO [4]): 990 ± 210 nM
